{"source": "patent US10259815B2", "about": "“Gabaergic ligands and their uses” (UWM Research Foundation, Inc., priority 2015, dated 2019)", "key": {"Male NIH Swiss mice": {"tested_on": "Male NIH Swiss mice", "assay": "Rotorod assay (ataxia)", "type": "in vivo", "protocol": "Male NIH Swiss mice (n=10) were dosed i.p. with vehicle (1% carboxymethyl cellulose) or one of the test compounds (10 or 30 mg/kg) 30 minutes prior to being tested on the rotorod. Mice were placed on a rod for two minutes at 4 revolutions per minute. […] Mice that fell twice failed the testing.\nThe rotorod assay (FIG. 5) is used to determine the ataxic effects, generally stemming from the α1 subtype, that compounds have in test subjects. Mice are trained to run on a slow, rotating cylinder for two minutes, and failure to stay on the rod may be due to ataxia. […] Each set of compounds were tested against a vehicle.\nMale NIH Swiss mice (n=10/group) were trained on a rotorod (Ugo Basile 7650) at 4 r.p.m. for two minutes per training session prior to testing. On test day, mice were dosed i.p. with either vehicle (1% carboxymethyl cellulose) or one of the test compounds (10 or 30 mg/kg) 30 minutes prior to testing."}, "Mice": {"tested_on": "Mice", "assay": "scMET test for anticonvulsant activity, mice", "type": "in vivo", "protocol": "Mice were then dosed i.p. with 5, 10, 25, or 50 mg/kg of KRM-II-81."}, "[1]": {"assay": "Liver microsomal stability, dog", "type": "in vitro ADME", "settings": "for Dog Liver microsome stability (reported in % remaining): 37° C., 4 μM compound, 30 minutes", "protocol": "In vitro metabolism studies were done in mouse, rat, human, and dogs cells (TABLE 2).\nIn vitro liver microsomal studies were completed to measure the stability of the compounds against degradation in various species' liver microsomes.\nCompound was incubated in hepatic microsomes over a 30-minute incubation period at 37° C. Incubations both with and without NADPH (2 mM) were performed in a 96-well plate format. The reaction was initiated with the addition of substrate and was terminated by protein precipitation. All incubations were performed using a final substrate concentration of 4 μM in 50 mM sodium phosphate buffer, pH 7.4. The final organic solvent content was 0.5% acetonitrile and 0.02% DMSO. The amount of enzyme present was fixed at 1.11 mg/mL protein irrespective of the species of microsomes used. Samples were analyzed by LC/MS-MS to determine the percent loss in the NAPDH incubations relative to the NADPH free incubations."}, "Male Sprague-Dawley rats": {"tested_on": "Male Sprague-Dawley rats", "assay": "Inverted screen test (muscle relaxation)", "type": "in vivo", "protocol": "Results were analyzed using ANOVA (Dunnett's test: *P<0.05).\nThe inverted screen test is used to measure whether or not a test compound induces muscle relaxation. When a test subject is placed on a wire screen which is then inverted, the reaction is to climb to the opposite side so they are no longer hanging upside down. If a compound promotes muscle relaxation, the test subjects will either fall off, or hang onto the screen without being able to climb to the opposite side.\nRats were placed onto the top of a wire screen, which was then inverted so that the rats were hanging upside down. […] Results were analyzed using ANOVA (Dunnett's test: *P<0.05)."}, "Sprague Dawley male rats": {"tested_on": "Sprague Dawley male rats", "assay": "Mechanical hyperalgesia (von Frey) in CFA-induced inflammatory pain rat model", "type": "in vivo", "settings": "for mechanical hyperalgesia in CFA-induced inflammatory pain: cumulative i.p. dosing, 3 days after CFA; for selectivity of antihyperalgesic effect in three-assay comparison: versus rate-suppressing and muscle-relaxant activity", "protocol": "Raw data (paw withdrawal threshold, expressed in g of von Frey filament) was converted to a maximal possible effect value according the following equation: % MPE=[(test threshold(g)−control threshold(g)/(pre-CFA threshold−control threshold)]×100.\nComplete Freund's adjuvant (CFA) contains Mycobacterium butyricum, inducing inflammation and an increase in paw thickness. 0.1 mL of CFA was injected in the right hind paw of Sprague Dawley male rats under isoflurane anaesthesia.\nMechanical hyperalgesia. Mechanical hyperalgesia was measured 3 days after CFA treatment. Rats (n=6) were placed in elevated boxes with a mesh floor. Von Frey filaments (expressed in g) were applied perpendicularly to the hindpaws, starting with the lowest filament (1.4 g) then increased until hindpaw withdrawal was observed. After each measurement, rats received the next dose of drug (every 20 min) until the maximum threshold (26 g) was observed. For the antagonist study, rats were pretreated with the benzodiazepine site antagonist flumazenil (10 min) and then received the next dose of drug (every 20 min) until the pre-CFA threshold was observed.\nDrugs. The following drugs were used: HZ166, KRM-II-18B, and KRM-II-81, and were dissolved in a mixture containing 20% Dimethyl sulfoxide (DMSO), 10% Emulphor-620 (Rhodia Inc.), and 70% of 0.9% saline. Flumazenil (purchased from Cayman Chemical Company, MI) was dissolved in a mixture containing 10% ethanol, 40% propylene glycol, and 50% sterile water. Midazolam (Akorn, Inc.) was dissolved in 0.9% saline. Doses were expressed as the weight of the drug in milligrams per kilogram of body weight and drugs were administered intraperitoneally."}, "[2]": {"assay": "Single-dose pharmacokinetics and brain concentrations, IV and IP, rats", "type": "in vivo, Sprague-Dawley rats", "protocol": "The single-dose pharmacokinetics were determined in femoral artery/vein cannulated Sprague-Dawley rats. The rats received a 1 mg/kg intravenous and 10 mg/kg oral gavage dose of compound. Blood samples were collected at 0.08 (IV only), 0.25, 0.5, 1, 2, 4, 8, 12, and 24 hours after initiation of compound administration. Plasma was obtained via centrifugation. Plasma samples were then analyzed by LC-MS, and pharmacokinetic parameters calculated using Watson (version 7.4; Thermo Fisher Scientific). Calculated parameters include clearance (Cl), volume of distribution (Vdss), area-under-the-curve (AUC), half-life (T½), maximum plasma concentration (Cmax), time of maximum concentration (Tmax), and bioavailability (% F).\nMale Sprague-Dawley rats were given either a 1 mg/kg […] dose or 10 mg/kg i.p. dose. Plasma concentrations were taken at 0.08, 0.25, 0.5, 1.0, 2, 4, 8, 12, and 24 hours (three rats per time point for each dose)."}}, "note": "Entries after “also recorded” stand apart in the source; their conditions may differ.", "data": [{"smiles": "C#Cc1ccc2c(c1)C(c1ccccn1)=NCc1c(-c3cnco3)ncn1-2", "note": "[KRM-II-81, 5-(8-Ethynyl-6-(pyridin-2-yl)-4H-benzo[f]imidazo[1,5-a][1,4]diazepin-3-yl)oxazole]", "values": [{"measurement": "ataxic / sedative effects in rotarod assay", "setting": "Male NIH Swiss mice; 10 or 30 mg/kg i.p.", "value": "less sedative effects than HZ-166; also recorded: no significant ataxic concerns"}, {"measurement": "Protected (animals protected/tested)", "setting": "Mice; Dose 5 mg/kg i.p.", "value": "0/8"}, {"measurement": "Protected (animals protected/tested)", "setting": "Mice; Dose 10 mg/kg i.p.", "value": "5/8"}, {"measurement": "Protected (animals protected/tested)", "setting": "Mice; Dose 25 mg/kg i.p.", "value": "7/8"}, {"measurement": "Protected (animals protected/tested)", "setting": "Mice; Dose 50 mg/kg i.p.", "value": "8/8"}, {"measurement": "ED50", "setting": "Mice; Mus musculus, ip, half hour time point, mice", "value": 10.9, "unit": "mg/kg"}, {"measurement": "Dog Liver microsome stability (reported in % remaining)", "setting": "[1]", "value": 94, "unit": "% remaining"}, {"measurement": "Dog % Metabolized", "setting": "[1]; in vitro metabolism, dog", "value": 5.9, "unit": "%"}, {"measurement": "muscle relaxation / motor impairment in inverted screen", "setting": "Male Sprague-Dawley rats; i.p. 30 minutes prior, diazepam 3, 10, 30 mg/kg, KRM-II-81 10, 30, 60 mg/kg, HZ-166 30 mg/kg", "value": "Neither HZ-166 nor KRM-II-81 induced significant muscle relaxation"}, {"measurement": "dose at which signs of muscle relaxation began to appear", "setting": "Male Sprague-Dawley rats; i.p., inverted screen", "value": 60, "unit": "mg/kg"}, {"measurement": "mechanical hyperalgesia in CFA-induced inflammatory pain", "setting": "Sprague Dawley male rats", "value": "much more active against hyperalgesia; also recorded: dose-dependently attenuated mechanical hyperalgesia"}, {"measurement": "selectivity of antihyperalgesic effect in three-assay comparison", "setting": "Sprague Dawley male rats", "value": "selectively produce antihyperalgesic effect"}, {"measurement": "mean clearance", "setting": "[2]; 1 mg/kg IV dose in rat", "value": 21.7, "unit": "mL/min/kg"}, {"measurement": "mean AUC", "setting": "[2]; 10 mg/kg IP dose in rat", "value": 16.5, "unit": "µM·h"}, {"measurement": "mean IP T ½", "setting": "[2]; 10 mg/kg IP dose in rat", "value": 3.1, "unit": "h"}, {"measurement": "mean bioavailability", "setting": "[2]; 10 mg/kg IP dose in rat", "value": 69, "unit": "%"}, {"measurement": "Cmax", "setting": "[2]; 10 mg/kg IP dose in rat, plasma", "value": 3.09, "unit": "µM"}, {"measurement": "half-life", "setting": "[2]; Sprague-Dawley, plasma, 1 mg/kg IV dose in rat, read-out: mean T ½ (converted)", "value": 1.4, "unit": "h"}, {"measurement": "Vd", "setting": "[2]; Sprague-Dawley, plasma, 1 mg/kg IV dose in rat, read-out: mean Vdss", "value": 1.4, "unit": "L/kg"}, {"measurement": "concentration at 1 h", "setting": "[2]; male, Sprague-Dawley, rat, brain, intraperitoneal, 10 mg/kg IP dose, 1 hour", "value": 6.63, "unit": "µM"}, {"measurement": "concentration at 4 h", "setting": "[2]; male, Sprague-Dawley, rat, brain, intraperitoneal, 10 mg/kg IP dose, 4 hour", "value": 2.05, "unit": "µM"}, {"measurement": "Kp uu at 1 h", "setting": "[2]; male, Sprague-Dawley, rat, brain/plasma (unbound), 10 mg/kg IP dose, 1 hour", "value": 0.53}, {"measurement": "Kp uu at 4 h", "setting": "[2]; male, Sprague-Dawley, rat, brain/plasma (unbound), 10 mg/kg IP dose, 4 hour", "value": 0.67}]}, {"smiles": "C#Cc1ccc2c(c1)C(c1ccccc1F)=NCc1c(-c3cnco3)ncn1-2", "note": "[KRM-II-18B, 5-(8-Ethynyl-6-(2-fluorophenyl)-4H-benzo[f]imidazo[1,5-a][1,4]diazepin-3-yl)oxazole]", "values": [{"measurement": "rotorod performance at 30 mg/kg", "setting": "Male NIH Swiss mice; 30 mg/kg i.p., 30 minutes prior, 4 r.p.m., two minutes", "value": "failed multiple times"}, {"measurement": "Dog Liver microsome stability (reported in % remaining)", "setting": "[1]", "value": 87, "unit": "% remaining"}, {"measurement": "mechanical hyperalgesia in CFA-induced inflammatory pain", "setting": "Sprague Dawley male rats", "value": "much more active against hyperalgesia; also recorded: dose-dependently attenuated mechanical hyperalgesia"}, {"measurement": "selectivity of antihyperalgesic effect in three-assay comparison", "setting": "Sprague Dawley male rats", "value": "selectively produce antihyperalgesic effect"}]}]}
